Values of other authors in patent US20090117199A1, “Method of treatment of cancer” (priority 1998, published 2009).
Like-named read-outs stand apart in the source and are kept apart here.

Key:
melanoma [1] = details: single-agent chemotherapy; cited from earlier work
melanoma [2] = details: cited from earlier work
[3] = IL cisplatin or IL cisplatin with electroporation, lower end of reported results
[4] = IL cisplatin or IL cisplatin with electroporation, upper end of reported results

CN(C)/N=N/c1[nH]cnc1C(N)=O [dacarbazine]
cases in which treatment is successful (melanoma [1]): 10-15%

N.N.[Cl][Pt][Cl] [cisplatin]
CR (melanoma [2]; [3]): 19% | ORR (melanoma [2]; [3]): 38% | PR (melanoma [2]; [3]): 19% | CR (melanoma [2]; [4]): 47% | ORR (melanoma [2]; [4]): 53% | PR (melanoma [2]; [4]): 7% | ORR (melanoma [2]; lesions having a median diameter of 3.0 cm): 44% | ORR (melanoma [2]; lesions with a median diameter of 0.6 cm): 53%

bleomycin
efficacy (melanoma [2]; single electrochemotherapy treatment, IL, response reduced in larger tumors): Substantial efficacy

B1: IFNγ: IL interferon (protein, UniProt P01579 24-161, looked up)
Interferon gamma: QDPYVKEAENLKKYFNAGHSDVADNGTLFLGILKNWKEESDRKIMQSQIVSFYFKLFKNFKDDQSIQKSVETIKEDMNVKFFNSNKKKRDDFEKLTNYSVTDLNVQRKAIHELIQVMAELSPAAKTGKRKRSQMLFRG
response (melanoma [2]; IL therapy, prior reports): no result of transient response | toxicity and side effects (melanoma [2]; in vivo): significant toxicity and side effects
